Source: patent US20220133753A1, “COMPOSITIONS AND METHODS USEFUL FOR TREATING DISEASES CHARACTERIZED BY INSUFFICIENT PANTOTHENATE KINASE ACTIVITY” (Comet Therapeutics, Inc., priority 2016, published 2022)
Each block holds one compound with its values, some of them ahead of it.

Columns and labels:
[1] = system: MCAD patient fibroblast cell lines; test: Mitochondrial stress test (Seahorse), reserve capacity of MCAD patient fibroblasts; type: cell-based, human; conditions: MCAD fibroblasts, relative to vehicle treated control
Excerpt: Medium-chain acyl-CoA dehydrogenase (MCAD) deficiency is a condition in which the body's capacity to break down fats with medium chain lengths is impaired, caused by mutations in the ACADM gene, which can lead to hypoglycaemia, and liver dysfunction. Left untreated, it can lead to seizures, coma and other serious health problems, with acute symptoms often preceded by extended periods of fasting or an infection with vomiting. Impaired metabolism were observed through functional measurements of respiration using a Seahorse XF Analyzer, where oxygen consumption rate (OCR) reflects oxidative respiration.
A study was performed to test the Rescue potential of S-acetyl-4′-phosphopantetheine in primary patient fibroblast model of MCAD deficiency. MCAD patient fibroblast cell lines (genotyped as containing homozygous K304E mutations in ACADM) were subject to a mitochondrial stress test according to standard protocol with a cell seeding density of 30 k cells/well (n=2). Rescue potential was assessed by increase in reserve capacity: defined as the difference between basal and maximal OCR, controlled by subtracting values for non-mitochondiral respiration (after rotenone treatment). The study was performed in two replicates.

[2] = system: primary human fibroblasts from healthy controls, MCAD deficiency and PA deficiency patients; test: Mitochondrial stress test (Seahorse), basal OCR of primary fibroblasts; type: cell-based; conditions: 24 h treatment
Excerpt: A study was thus performed to test the ability of S-acetyl-(S)-4′-phosphopantetheine to facilitate increased basal oxidative respiration in primary fibroblast cultures from patients diagnosed with MCAD deficiency and PA deficiency. Impaired metabolism were observed through functional measurements of respiration using a Seahorse XF Analyzer, where oxygen consumption rate (OCR) reflects oxidative respiration.
Patient derived cell lines were subject to a mitochondrial stress test according to standard protocol with a cell seeding density of 30 k cells/well (n=2) in glucose free media. After incubation with various concentrations of S-acetyl-4′-phosphopantetheine or vehicle for 24 h, rescue potential was assessed by increase in basal OCR (average of six readings between 30-70 min), relative to control: basal OCR from vehicle treatment was set to 1.0. […] Experiment was performed in two replicates: systematically outlying values caused by seeding errors, port failures, or values within background were excluded from analysis.

[3] = system: RNAi knock-down of CG7461 drosophila; test: Drosophila model of VLCAD deficiency, survival in starvation; type: in vivo; conditions: 5 mM, fed for 24 h
Excerpt: (§1) The drosophila gene CG7461 is considered to be a good ortholog of ACADVL, as determined by Fly DIOPT (DRSC Integrative Ortholog Prediction Tool). RNAi approaches are an established method of modelling various diseases, and the GD stock library at the Vienna Drosophila Resource Centre (VDRC) contains a knock-down strain for CG7461 (VDRC ID 28028). Down-regulation of CG7461 by RNAi, results in reduced viability when metabolically challenged with starvation.
Five virgin females from Act5C-GAL4 (RNAi expression driver line) and ten virgin males from UAS-GD 28028 (RNAi knock-down of CG7461) were crossed, to generate mutant progeny. In a similar manner, control flies were generated for the RNAi driver line (Gal4 control: Act5C-GAL4×GD 60000) and the upstream activating sequence (UAS control: UAS-GD 28028×Iso 31). From their offspring, 3-day old adult flies were allowed to feed for 24 h on glucose with and without 5 mM (S)-acetyl-4′-phosphopantetheine, then incubated on 2% agar medium without media. Dead flies were counted every 6 hours (up 90 hours) to obtain % survival over time. Rescue potential was assessed by the ability to survive in starvation conditions, expressed as the area under the curve (calculated by trapezium rule) of the cumulative frequency, relative to each control strain.

[4] = system: CG34404 down-regulated drosophila; type: in vivo
Excerpt: as §1, with “CG34404” for “CG7461”, “both MCCC1 and MCCC2,” for “ACADVL,”, “KK” for “GD”, “103335).” for “28028).”, “causes developmental delay.” for “results in reduced viability when metabolically challenged with starvation.”
Five virgin females from UAS-KK 103335 (RNAi knock-down of CG34404) and ten virgin males from Act5C-GAL4 (heterozygous RNAi expression driver line with CyO balancer) were crossed, and allowed to lay for a period of 24 h in vials containing drosophila media with and without S-acetyl-4′-phosphopantetheine. Rescue potential was assessed by the number of eclosed male mutant or control flies every 6 h, as a percentage of total eclosed flies of each genotype, expressed as the AAUC (calculated by trapezium rule) of the cumulative eclosion relative to the control strain, as shown in FIG. 22A. Further, the region of relative AUCs are plotted in FIG. 22B under treatment conditions.

[5] = system: dPANK/fbl RNAi treated Drosophila S2 cells; test: dPANK/fbl RNA interference in Drosophila S2 cells, rescue by CoA or 4′-phosphopantetheine; type: cell-based; conditions: compound added to the medium; for histone (protein) acetylation of dPANK/fbl RNAi treated S2 cells: immunofluorescence
Experimental: Drosophila S2 Cell Culture, RNA Interference, and CoA and 4′-phosphopantetheine treatment: Drosophila Schneider's S2 cells were maintained at 25° C. in Schneider's Drosophila medium (Invitrogen) supplemented with 10% heat inactivated fetal calf serum (Gibco) and antibiotics (penicillin/streptomycin, Invitrogen) under laboratory conditions. Synthesis of RNAi constructs and RNA interference (dsRNA) treatment was carried out as described previously (Siudeja K et al, EMBO Mol Med 3, 755-766 (2011)). Non-relevant (human gene; hMAZ) dsRNA was used as control. The cells were incubated for 4 days to induce an efficient knock-down. Cells were then subcultured, with or without CoA (Sigma-Aldrich, Cat. No: C4780—which is used for all the experiments wherever stated below) or 4′-phosphopantetheine (PPanSH) at different concentrations and were maintained for additional 3 days until analysis for rescue efficiency of the compounds was performed. The stock solutions of compounds were made in sterile water and stored in −20° C. until use.
(§2) Drosophila S2 Cell Immunofluorescence Staining: For immunofluorescence Drosophila S2 cells were seeded on Poly-L-Lysine coated (Sigma-Aldrich) glass microscope slides and allowed to settle for 45 min. Cells were fixed with 3.7% formaldehyde (Sigma Aldrich) for 20 min, washed briefly with PBS+0.1% Triton-X-100 (Sigma Aldrich) and permeabilized with PBS+0.2% Triton-X-100 for 20 min. The slides were incubated in primary antibody (rabbit anti-AcLys, Cell Signaling Cat No: 9441, 1:500) to visualize histone acetylation levels in PBS+0.1% Triton-X-100 overnight and after an additional washing step in PBS+0.1% Triton-X-100 they were incubated in secondary goat anti-rabbit-Alexa488 antibody (Molecular Probes) for two hours at room temperature (RT). F-actin was detected with Rhodamin-Phalloidin (20 U/ml)(Invitrogen) and DNA by staining with DAPI (0.2 ug/ml) (Thermo Scientific). Finally the samples were mounted in 80% glycerol and analyzed using a Leica fluorescence microscope with Leica software. Adobe Photoshop and Illustrator (Adobe Systems Incorporated, San Jose, Calif., USA) were used for image assembly.

[6] = system: Drosophila S2 cells; test: HoPan treatment of Drosophila S2 cells in combination with CoA or 4′-phosphopantetheine; type: cell-based; conditions: HoPan treated S2 cells
Experimental: HoPan treatment of Drosophila S2 Cell in combination with CoA or 4′-phosphopantetheine treatment: Drosophila Schneider's S2 cells were maintained at standard conditions as explained above. Cells in the exponential phase of growth were used for all the experiments. Different indicated concentrations of CoA or 4′-phosphopantetheine (deuterium labelled PPanSH(D4) or unlabeled PPanSH) were added to S2 cells either in the presence or absence of 0.5 mM HoPan (Zhou Fang Pharm Chemical, China) for 48 h. Similarly, Drosophila S2 cells were treated with different concentrations of PPanSH(D4) at either 25° C. or 4° C. and cells were then harvested at various time points to access transport of PPanSH(D4). Stable isotope labelled PPanSH containing 4 deuterium atoms was purchased from Syncom (Groningen, The Netherlands) as a sodium salt (chemical structure is provided in FIG. 13A). As a read out cell count, intracellular total CoA and PPanSH levels (both labelled and unlabeled levels wherever appropriate) and histone acetylation levels were analyzed as explained below.
as §2

[7] = system: HEK293 cells; test: HoPan treatment of mammalian HEK293 cells in combination with CoA or 4′-phosphopantetheine; type: cell-based, human; conditions: HoPan treated HEK293 cells, compound added to the medium
Experimental: HoPan treatment of mammalian HEK293 Cells in combination with CoA and 4′-phosphopantetheine treatment: HEK293 cells were maintained in dMEM (Invitrogen) supplemented with 10% fetal calf serum (Gibco) and antibiotics (penicillin/streptomycin, Invitrogen). For HoPan treatment, cells were cultured in custom made dMEM without vitamin B5 (Thermo Scientific) supplemented with dialyzed FCS (Thermo Scientific). CoA or PPanSH was added to HEK293 cells for the final concentration of 25 uM, either in the presence or absence of HoPan (0.5 mM) for 4 days, followed by analysis for phenotype and rescue efficiency of CoA and PPanSH.
Western blot analysis and Antibodies: For Western blot analysis, cells were collected and washed with phosphate buffer saline (PBS), followed by centrifugation. The cells were lysed and sonicated in 1X Laemmli Sample Buffer and boiled for 5 min with 5% β-mercaptoethanol (Sigma). Protein content was determined using DC protein assay (BioRad). Equal amounts of protein were loaded on a 10 or 12.5% SDS-PAGE gel, transferred onto PVDF membranes and blocked with 5% milk in PBS/0.1% Tween, followed by overnight incubation with primary antibodies. The primary antibodies used were: rabbit-anti dPANK/fbl, 1:4000 Eurogentec custom made as described previously5, mouse anti-tubulin (Sigma Aldrich Cat no: T5168, 1:5000), anti-acetyl-Histone3 (Active Motif Cat no: 39139, 1:2000), anti GAPDH (Fitzgerald Cat no: 10R-G109a, 1:10000), rabbit anti COASY (Abcam Cat no: AB129012, 1:1000). Appropriate HRP-conjugated secondary antibodies (Amersham) were used and detection was performed using enhanced chemi-luminescence (Pierce cat nog: 32106) and Amersham hyperfilm (GE Healthcare). Band intensities were quantified with Image-studio software.

[8] = Stability of CoA in PBS, medium and fetal calf serum by HPLC; conditions: formed from CoA in serum, time course of 6 hours
Experimental: HPLC sample preparation protocol for total CoA and 4′-phosphopantetheine measurement: Samples were briefly washed with ice-cold PBS solution. Samples were sonicated thoroughly in 100 μl ice-cold PBS and centrifuged for 10-15 min at 4° C. to collect supernatant. Tris(2-carboxyethyl)phosphine hydrochloride (Sigma) (50 mM; 10 ul) was added to 50 μl sample supernatant and were incubated at room temperature for 15 min after vortex-mixing. Saturated ammonium sulfate solution or Millipore 3KD centrifugal filter units were used to remove proteins. The samples were centrifuged at 14,000 rpm for 15 min at 4° C. The clear supernatant (50 ul) or the filtrate was derivatized with 45 ul of ammonium 7-flurobenzo-2-oxa-1,3-doazole-4-sulfonate (SBD-F, Sigma) (1 mg/ml in borax buffer—0.1M containing 1 mM EDTA disodium, pH 9.5), and 5 ul ammonia solution (12.5% v/v, Merck Millipore) at 60° C. for 1 h. The derivatized samples were placed in a refrigerated autosampler (10° C.) in the Shimadzu HPLC system, and injected for total CoA and PPanSH analysis using optimized chromatographic separation conditions combined with fluorescence detection (described below).
Chromatography separation condition: Chromatographic analysis was performed with a Shimadzu LC-10AC liquid chromatograph, SCL-10A system controller, SIL-10AC automatic sample injector and LC-10AT solvent delivery system. Shimadzu RF-20Axs fluorescence detector was used for derivatized sample extract analysis. The fluorescence detector was set at excitation and emission wavelengths of 385 nm and 515 nm, respectively. Signal output was collected digitally with Shimadzu Labsolution software and post run analysis was performed. […] The two mobile phases consisted of A: 100 mM ammonium acetate buffer (pH 4.5) and B: acetonitrile. Flow rate was maintained at 0.8 ml/min with a slow gradient elution: 0% B till 7 min, 20% B at 20 min, 20% B at 22 min, 50% B at 23 min, maintained at 50% B till 27 min, 0% B at 28 min and 7-10 min for column re-equilibration.
The stability of CoA in PBS, serum-free medium, medium containing fetal calf (FCS) serum and in fetal calf serum was measured.

Compound: S-acetyl-4′-phosphopantetheine
spare respiratory capacity (reserve capacity) [1]: improved spare respiratory capacity
effect on basal OCR in patient fibroblasts compared with healthy controls ([2]; MCAD and PA patient fibroblasts): observed more strongly
basal OCR levels ([2]; primary fibroblasts, relative to vehicle controls): consistently elevated
ability to survive starvation relative to control flies (AUC of cumulative survival) [3]: partially recovered towards control levels
ability to survive starvation relative to control flies (AUC of cumulative survival) ([3]; listed as (S)-acetyl-4′-phosphopantetheine): partially recovered
reduction of the observed developmental delay ([4]; 2 mM in drosophila media): 27 cumulative fly days
toxicity in drosophila ([4]; in vivo): some toxicity

stability of 4′-phosphopantetheine in serum [8]: stable
Compound: CC(C)(COP(=O)(O)O)[C@@H](O)C(=O)NCCC(=O)NCCS [4′-phosphopantetheine]
cell count of dPANK/fbl RNAi treated S2 cells [5]: rescued
histone (protein) acetylation of dPANK/fbl RNAi treated S2 cells [5]: rescued the histone acetylation defect
histone (protein) acetylation of dPANK/fbl RNAi treated S2 cells ([5]; listed as PpanSH): rescues acetylation defects
rescue of HoPan-induced decrease in cell count ([6]; compound added to the medium): rescued
rescue of HoPan-induced histone acetylation defect ([6]; compound added to the medium): rescued the histone acetylation defect
rescue of HoPan-induced histone acetylation defect ([6]; compound added to the medium, listed as PpanSH): rescues acetylation defects
intracellular levels of 4′-phosphopantetheine ([6]; external supplementation, HPLC): significantly increased
rescue of HoPan-induced impaired histone acetylation [7]: rescued
rescue of HoPan-induced reduction in cell count [7]: rescued
intracellular CoA level ([7]; HPLC): rescued
